Test results published in ChEMBL document CHEMBL1140476 (Bioorg Med Chem, 2007).
Calls of active or inactive are those of the source. The calls are words filed in the database; no cut-off is given here.

Legend:
[1] = tested on: Escherichia coli; assay: Inhibition of Escherichia coli DnaB helicase at 6 uM
[2] = tested on: Escherichia coli; assay: Inhibition of Escherichia coli DnaB helicase at 12 uM
[3] = tested on: Escherichia coli; assay: Inhibition of Escherichia coli DnaB helicase at 30 uM
[4] = tested on: Escherichia coli; assay: Inhibition of Escherichia coli DnaB helicase at 60 uM
[5] = Inhibition of Escherichia coli DnaB helicase in presence of 150 uM ATP
[6] = Inhibition of Escherichia coli DnaB helicase in presence of 1 mM ATP
[7] = tested on: Escherichia coli; assay: Inhibition of Escherichia coli DnaB helicase-stimulated primer synthesis

Km [1]: 17 µM | Vmax [1]: 1.64 µM/s | Km [2]: 2.9 µM | Vmax [2]: 1.06 µM/s | Km [3]: 2.3 µM | Vmax [3]: 0.61 µM/s | Km [4]: 4.5 µM | Vmax [4]: 0.35 µM/s | IC50 [5]: 10.2 µM | IC50 [6]: 11.3 µM | Activity [7]: Active
SMILES: O=c1c(O)c(-c2cc(O)c(O)c(O)c2)oc2cc(O)cc(O)c12 [MYRICETIN]
